Laboratory results published in patent US20040068006A1, “Method for preventing acute renal failure” (Critical Therapeutics, Inc., priority 2001, published 2004).

Tested on: sepsis-induced acute renal failure
Test: Cecal ligation puncture (CLP) sepsis-induced acute renal failure in aged mice
Assay type: in vivo, mouse
Details: for HPLC creatinine: mean±SE
Procedure: Animal care followed NIH criteria for the care and use of laboratory animals in research. Young (7-8 weeks) and aged (42-44 weeks) male C57BL/6 mice [National Institutes of Health (NIH), Frederick, Md.] had free access to water and chow (NIH-07) Rodent chow, Zeigler Bros., Gardners, Pa.) before and after surgery.
Aged mice were anesthetized with 100 mg/kg ketamine, 10 mg/kg xylazine, and 1 mg/kg acepromazine IM. After laparotomy, a 5-0 silk ligature was placed 5 mm from the cecal tip. The cecum was punctured twice with a 21-gauge needle and gently squeezed to express a 1 mm column of fecal material. In sham operated animals, the cecum was located, but neither ligated nor punctured. The abdominal incision was closed in two layers with 6-0 nylon sutures. After surgery, one ml of pre-warmed normal saline was given IP. All animals received a broad spectrum antibiotic (imipenem/cilastatin; 25 mg/kg SC), then 1.5 ml of 3/4 saline was administered at 6 and 18 hr after surgery by SC injection. At the time of sacrifice, blood was collected from abdominal aorta for measurement of blood chemistries. The kidneys were harvested for histological and mechanistic studies.
Survival after surgery was assessed every 6 hr within the first 48 hr and then every 8 hr for 4 days. Antibiotic injection and fluid resuscitation were started 6 hr after CLP by SC injection, and then repeated every 12 hr for 4 days.
Animals received 0.4 ml of Ringers lactate (RL) [130 mM Na+, 4 mM K+, 2.7 mM Ca+, 109 mM Cl^−, and 28 mM lactate] or a similar volume of freshly-made Ringers ethyl pyruvate (EP) where EP (Sigma) was substituted for sodium lactate. A single dose was injected IP at 0, 6, or 12 hr after CLP surgery.
Serum levels of blood urea nitrogen (BUN), aspartate transaminase (AST), alanine transaminase (ALT), amylase, creatine kinase (CK) and lactate dehydrogenase (LDH) were measured using an autoanalyzer (Hitachi 917, Boehringer Mannheim, Indianapolis, MN). Serum creatinine were measured by a picric acid-based colorimetric kinetic autoanalyzer (Astra 8 autoanalyzer; Beckman Instruments, Fullerton, Calif.). Serum […] was also measured by high-performance liquid chromatography (HPLC) Johns et al., B Biomed. Sci. Appl. 759:343 (2001)). Acetonitrile was added to serum, centrifuged, and the supernatant fraction was dried, resuspended in 5 mM sodium acetate pH 5.1, and chromatrographed isocratically on a PRP-X200 cation exchange column (Hamilton, Reno Nev.) and detected by UV absorbance at 234 nm (Agilent Technologies, Palo Alto, Calif.).
10% Formalin-fixed and paraffin-embedded kidney sections were stained with periodic acid-Schiff reagent (PAS) or naphthol AS-D chloroacetate esterase (Sigma; St. Louis, Mo.). Histological changes in the cortex and in the outer stripe of the outer medulla (OSOM) were assessed by quantitative measurements of tissue damage. Tubular damage was defined as tubular epithelial swelling, loss of brush border, vacuolar degeneration, necrotic tubules, cast formation, and desquamation. The degree of kidney damage was estimated at 400× magnification using 5 randomly selected fields for each animal by the following criteria: 0, normal; 1, areas of damage <25% of tubules; 2, damage involving 25-50% of tubules, 3, damage involving 50 to 75% of tubules; 4, 75-100% of the area being affected.
All data are expressed as means±SE. Differences between groups were examined for statistical significance by ANOVA with a multiple comparison correction (StatView 4.5, Berkeley, Calif.; or SigmaStat 2.0, SPSS, San Rafael, Calif.). A P value <0.05 was accepted as statistically significant.

SMILES: CCOC(=O)C(C)=O [EP, ethyl pyruvate]
- tubular damage in cortex and OSOM (EP at 0, 6 or 12 hr after CLP, measured at 24 hr): significantly reduced the tubular damage
- HPLC creatinine (higher dose (40 mg/kg) EP, single IP dose delayed until 6 hr after surgery): 0.13 ± 0.01 mg/dL
- HPLC creatinine (higher dose (40 mg/kg) EP, single IP dose delayed until 12 hr after surgery): 0.17 ± 0.03 mg/dL
- HPLC creatinine (single IP dose 8 mg/kg EP after CLP surgery (0 hr), RL vehicle 0.33±0.07 mg/dl): 0.17 ± 0.02 mg/dL
- HPLC creatinine (single IP dose 40 mg/kg EP after CLP surgery (0 hr), RL vehicle 0.33±0.07 mg/dl): 0.14 ± 0.02 mg/dL
- renal injury as measured by BUN or HPLC creatinine (single dose of either 8 or 40 mg/kg EP after surgery, vs. RL): significantly prevented the renal injury
- acute renal failure (summary statement referring to Example 1): inhibits acute renal failure
- therapeutic window for sepsis-induced acute renal failure (treatment start after CLP surgery): ≥ 12 h
- amount of protection for tubular injury score (without much change with delayed treatment (up to 12 hr)): 60-80%
